One test has as its system CD34^+NGFR^+ cells. Put plainly: Transfection of cord blood CD34+ cells with NGFR gene, CD34+NGFR+ cell expansion (Example 10). Also on record: species or system human. The note with it: TPO 20 ng/mL or compound 0.3 μg/mL, 20 ng/mL SCF and Flt-3; based on number of CD34+NGFR+ cells in the absence of them. On the procedure:
The human cord blood-derived CD34^+ cells collected or purchased in Example 1 were plated on 3 cm-Petri dishes (TPP) (100000 cells/3 ml/dish). As the culture medium, StemSpan SFEM (Stemcell Technologies) containing 20 ng/ml SCF (Peprotech) and 20 ng/mL Flt-3 (Wako Pure Chemical Industries) was used, and TPO (Peprotech) or Compound No. 1 or No. 4 in dimethyl sulfoxide in an amount of 0.1% (v/v) was added to a final concentration of 20 ng/mL or 0.3 μg/mL, respectively. A negative control culture was incubated in the absence of TPO and the compounds.
After the cells were incubated in liquid culture at 37° C. for 24 hours in a CO2 incubator (5% CO2), 2 ml of the culture medium was sucked out, and 2 ml of the solution of the retrovirus for expression of NGFR prepared in Example 7 (containing 5 μg/mL protamine sulfate (Sigma-Aldrich Japan), 20 ng/ml SCF (Peprotech) and 20 ng/mL Flt-3 (Wako Pure Chemical Industries)) was added. TPO (Peprotech) or Compound No. 1 or No. 4 in dimethyl sulfoxide in an amount of 0.1% (v/v) was further added to a final concentration of […] or 0.3 μg/mL, respectively, and centrifugation at 2000 g was carried out at 32° C. for 30 minutes. Then, the cells were incubated in liquid culture under the same conditions as mentioned above for 24 hours, 2 ml of the culture medium was sucked out, 2 ml of the same solution of the retrovirus for expression of NGFR was added together with TPO or either compound, and centrifugation at 2000 g was carried out at 32° C. for 30 minutes. […] The cells were incubated in liquid culture under the same conditions as mentioned above for 24 hours, and the number of viable cells was counted by trypan blue assay (GIBCO).
The number of CD34^+ cells carrying NGFR introduced via the retrovirus vector (the number of CD34^+NGFR^+ cells) was calculated as follows. […] The stained cells were analyzed with JSAN (Bay Bioscience) to determined the proportion of CD34^+NGFR^+ cells, which was multiplied by the number of viable cells to calculate the number of CD34^+NGFR^+ cells. […]

For test [1], the system named is HPP-CFU colony forming cells. As to the kind of experiment: Blood cell colony forming assay, HPP-CFC colonies (Example 5). The format is cell-based, human. The note with it: liquid cultures of Example 2 (1 μg/mL compound), 500 cells/dish, MethoCult GF H4435, 12 days, averaged. On the procedure:
The effects of Compounds No. 1, No. 2, and No. 4 of the present invention on hematopoietic progenitor cells were measured by blood cell colony forming assay. The liquid cell cultures obtained in Example 2 were poured into 3.5-cm Petri dishes with MethoCult GF H4435 culture medium (Stemcell Technologies) at 500 cells/dish and incubated in a CO2 incubator (5% CO2, 37° C.) for 12 days. The number of HPP-CFC colonies in each plate was counted under a microscope routinely. The assay was carried out at least in duplicate, and the numbers of HPP-CFC colonies were averaged.

The subject of test [2] is CD34^+CD38^− cells. As to the kind of experiment: Expansion of CD34+CD38− cells from human cord blood-derived CD34+ cells (Example 2). The format is cell-based. The note with it: Homo sapiens, 168 h, 1 μg/mL compound, 50 ng/mL SCF, StemSpan SFEM, 7 days; based on number of CD34+CD38− cells in the absence of compound; read-out: Expansion efficiency. The procedure, abridged:
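Human cord blood CD34+ cells (10000 cells/mL) were cultured 7 days at 37 °C, 5% CO2 in StemSpan SFEM with 50 ng/mL SCF and compound at 1 μg/mL final (0.1% DMSO). Viable cells were counted by trypan blue and the CD34+CD38− fraction by flow cytometry with PI exclusion; expansion is relative to no-compound culture, graded A (≥10), B (5–<10), C (3–<5).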

Another test deals with SRC. As to the kind of experiment: Transplantation of cell culture into NOD/SCID mice, human CD45+ cells in bone marrow (Example 7). Type of test: in vivo. The note with it: cells cultured with 1 μg/mL compound vs 10 ng/mL TPO; three weeks after transplantation (FIG. 3). On the procedure:
Cultured cells obtained in the same manner as in Example 2 in the presence of TPO (Peprotech) at a final concentration of 10 ng/mL or in the presence of Compound No. 1 or No. 4 at a final concentration of 1 μg/mL was transplanted into at least three 7- to 8-week-old NOD/SCID mice by tail vein injection at 4 to 5×10^4 cells/mouse in terms of the initial number of CD34^+ cells after a sublethal dose of irradiation (2.75 to 3 Gy). Three weeks after the transplantation, the mice were killed, and the bone marrow cells were collected from both thighbones. Subsequently, the bone marrow cells were stained with a human CD45 antibody (APC, Becton, Dickinson and Company), then washed with PBS(−) containing 2% (v/v) FBS and stained with propidium iodide (Sigma-Aldrich Japan) added to a final concentration of 5 μg/mL. The stained cells were analyzed with a flow cytometer JSAN (Bay Bioscience) to determined the proportion of human CD45^+ cells in the bone marrow cells.
The proportions of human CD45^+ cells from the cell cultures incubated in the presence of 1 μg/mL of Compound No. 1 or No. 4 based on the proportion of human CD45^+ cells from the cell culture incubated in the presence of 10 ng/mL TPO are shown in FIG. 3.

The test system of test [3] is CD34^+CD38^− cells. Put plainly: Expansion of CD34+CD38− cells using cord blood-derived CD34+CD38− cells (Example 6). The format is cell-based, human. The note with it: 1 μg/mL compound, CD34+CD38− starting cells, 50 ng/mL SCF, 7 days; based on number of CD34+CD38− cells in the presence of 10 ng/mL TPO. How it is done:
The human cord blood-derived CD34^+CD38^− cells collected in Example 1 were plated on a 24-well plate (TPP) (from 3000 to 10000 cells/1 mL/well). As the culture medium, StemSpan SFEM (Stemcell Technologies) containing 50 ng/mL SCF (Peprotech) was used, and TPO (Peprotech) or Compound No. 1, No. 2, No. 4 or No. 6 in dimethyl sulfoxide in an amount of 0.1% (v/v) was added to a final concentration of […] or 1 μg/mL, respectively. After the cells were incubated in liquid culture at 37° C. for 7 days in a CO2 incubator (5% CO2), the number of CD34^+CD38^− cells was calculated in the same manner as in Example 2.
The expansion efficiencies in the presence of 1 μg/mL of the compounds based on the number of CD34^+CD38^− cells in the presence of 10 ng/mL TPO are shown in Table 5.

A value given as a limit tells only on which side of the number the result lay.

Turning to `C/C(=N\NC(=O)c1ccc(C(=O)NCc2cn(C)cn2)s1)c1csc(-c2ccc(Cl)c(Cl)c2)c1O` [Compound No. 1], the Expansion efficiency in the test with CD34^+NGFR^+ cells came to 9.8; with CD34^+CD38^− cells [3], 1.9. In addition, the “Number of HPP-CFC colonies” value in test [1] amounted to 41. Further, in the test with CD34^+CD38^− cells [2], the fold induction at 1 µg/mL was at least 10. In addition, in the test with SRC, the “SRC expanding effect (proportion of human CD45+ cells in bone marrow)” value is on record as “excellent SRC expanding effect”.

Regarding `C/C(=N\NC(=O)c1ccc(C(=O)NCc2ccc(C(N)=O)cc2)s1)c1csc(-c2ccc(Cl)c(Cl)c2)c1O` [Compound No. 4], the Expansion efficiency in the test on CD34^+NGFR^+ cells is listed as 12.5; with CD34^+CD38^− cells [3] it was 1.9. In addition, in test [1], the “Number of HPP-CFC colonies” value stood at 45. In addition, the fold induction at 1 µg/mL in the test on CD34^+CD38^− cells [2] is at least 10. The “SRC expanding effect (proportion of human CD45+ cells in bone marrow)” value in the test with SRC was “excellent SRC expanding effect”.

In turn, thrombopoietin [TPO] came in with an Expansion efficiency in the test on CD34^+NGFR^+ cells of 7.7.

These data come from patent publication US9527828B2, “Method for expanding hematopoietic stem cells using heterocyclic compound” (Nissan Chemical Industries, Ltd., priority 2007, dated 2016).
